Measurements reported in patent publication US20180251431A1 (VERTEX PHARMACEUTICALS INCORPORATED, priority 2016, published 2018).

Tested on: HEK293 cells
Test: HEK293 VLCFA-LPC IC50 determination (13C-labeled C26:0 LPC by UHPLC/MS)
Type: cell-based, human
Details: Homo sapiens, HEK293, 48 h, average of one or more replicates; 13C-labeled C26:0 LPC, 48 hours; read-out: Average HEK293 IC50
Procedure, shortened: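 Suspension HEK293 cells (final 0.5 million/mL after mixing with equal volume) incubated 48 hours with compound plus 13C-acetate (1.0 mg/mL in added media), shaking at 37° C. Lipids extracted with hexane/isopropanol or methanol, C13:0 LPC standard. UHPLC/MS of 13C-labeled C26:0 LPC (638.500/104.100 m/z); IC50 by four-parameter fit.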

Compound	IC50
O=C(Nc1ccn(-c2cncc(Cl)c2)n1)C1(c2ccccc2F)CC1 [Compound 325, N-[1-(5-chloro-3-pyridyl)pyrazol-3-yl]-1-(2-fluorophenyl)cyclopropanecarboxamide]	0.073 µM
N#Cc1ccc(-n2ccc(NC(=O)C3(c4ccccc4F)CC3)n2)cn1 [Compound 326, N-[1-(6-cyano-3-pyridyl)pyrazol-3-yl]-1-(2-fluorophenyl)cyclopropanecarboxamide]	> 5 µM
COc1cncc(C#N)c1-n1ccc(NC(=O)C2(c3ccccc3F)CC2)n1 [Compound 327, N-[1-(3-cyano-5-methoxy-4-pyridyl)pyrazol-3-yl]-1-(2-fluorophenyl)cyclopropanecarboxamide]	> 5 µM
O=C(Nc1ccn(-c2ccncc2C(F)(F)F)n1)C1(c2ccccc2F)CC1 [Compound 328, 1-(2-fluorophenyl)-N-[1-[3-(trifluoromethyl)-4-pyridyl]pyrazol-3-yl]cyclopropanecarboxamide]	> 5 µM
N#Cc1cc(-n2ccc(NC(=O)C3(c4ccccc4F)CC3)n2)ccn1 [Compound 329, N-[1-(2-cyano-4-pyridyl)pyrazol-3-yl]-1-(2-fluorophenyl)cyclopropanecarboxamide]	3.6 µM
COc1nccc(-n2ccc(NC(=O)C3(c4ccccc4F)CC3)n2)n1 [Compound 330, 1-(2-fluorophenyl)-N-[1-(2-methoxypyrimidin-4-yl)pyrazol-3-yl]cyclopropanecarboxamide]	0.26 µM
Cc1nccc(-n2ccc(NC(=O)C3(c4ccccc4F)CC3)n2)n1 [Compound 331, 1-(2-fluorophenyl)-N-[1-(2-methylpyrimidin-4-yl)pyrazol-3-yl]cyclopropanecarboxamide]	> 5 µM
O=C(Nc1ccn(-c2ccncc2Cl)n1)C1(c2ccccc2F)CC1 [Compound 333, N-[1-(3-chloro-4-pyridyl)pyrazol-3-yl]-1-(2-fluorophenyl)cyclopropanecarboxamide]	0.95 µM
CC(C)(O)c1cc(-n2ccc(NC(=O)C3(c4ccccc4F)CC3)n2)ccn1 [Compound 334, 1-(2-fluorophenyl)-N-[1-[2-(1-hydroxy-1-methyl-ethyl)-4-pyridyl]pyrazol-3-yl]cyclopropanecarboxamide]	> 5 µM
N#Cc1cnccc1-n1ccc(NC(=O)C2(c3ccccc3F)CC2)n1 [Compound 335, N-[1-(3-cyano-4-pyridyl)pyrazol-3-yl]-1-(2-fluorophenyl)cyclopropanecarboxamide]	> 5 µM
COc1nccc(-n2ccc(NC(=O)C3(c4ccccc4F)CC3)n2)c1C#N [Compound 336, N-[1-(3-cyano-2-methoxy-4-pyridyl)pyrazol-3-yl]-1-(2-fluorophenyl)cyclopropanecarboxamide]	> 5 µM
Cc1cc(-n2ccc(NC(=O)C3(c4ccccc4F)CC3)n2)nc(C)n1 [Compound 337, N-[1-(2,6-dimethylpyrimidin-4-yl)pyrazol-3-yl]-1-(2-fluorophenyl)cyclopropanecarboxamide]	> 5 µM
COc1ncc(-n2ccc(NC(=O)C3(c4ccccc4F)CC3)n2)cn1 [Compound 338, 1-(2-fluorophenyl)-N-[1-(2-methoxylpyrimidin-5-yl)pyrazol-3-yl]cyclopropanecarboxamide]	> 5 µM
Cc1ncnc(C)c1-n1ccc(NC(=O)C2(c3ccccc3F)CC2)n1 [Compound 339, N-[1-(4,6-dimethylpyrimidin-5-yl)pyrazol-3-yl]-1-(2-fluorophenyl)cyclopropanecarboxamide]	> 5 µM
COc1nccc(-n2ccc(NC(=O)C3(c4ccccc4F)CC3)n2)c1C [Compound 340, 1-(2-fluorophenyl)-N-[1-(2-methoxy-3-methyl-4-pyridyl)pyrazol-3-yl]cyclopropanecarboxamide]	> 5 µM
Cc1ncncc1-n1ccc(NC(=O)C2(c3ccccc3F)CC2)n1 [Compound 341, 1-(2-fluorophenyl)-N-[1-(4-methylpyrimidin-5-yl)pyrazol-3-yl]cyclopropanecarboxamide]	0.7 µM
CC(C)Oc1cc(-n2ccc(NC(=O)C3(c4ccccc4F)CC3)n2)ccn1 [Compound 342, 1-(2-fluorophenyl)-N-[1-(2-isopropoxy-4-pyridyl)pyrazol-3-yl]cyclopropanecarboxamide]	> 5 µM
Cc1nccc(-n2ccc(NC(=O)C3(c4ccccc4F)CC3)n2)c1C [Compound 343, N-[1-(2,3-dimethyl-4-pyridyl)pyrazol-3-yl]-1-(2-fluorophenyl)cyclopropanecarboxamide]	> 5 µM
Cc1ncc(C#N)c(-n2ccc(NC(=O)C3(c4ccccc4F)CC3)n2)n1 [Compound 344, N-[1-(5-cyano-2-methyl-pyrimidin-4-yl)pyrazol-3-yl]-1-(2-fluorophenyl)cyclopropanecarboxamide]	> 5 µM
COc1cncc(F)c1-n1ccc(NC(=O)C2(c3ccccc3F)CC2)n1 [Compound 345, N-[1-(3-fluoro-5-methoxy-4-pyridyl)pyrazol-3-yl]-1-(2-fluorophenyl)cyclopropanecarboxamide]	> 2 µM

Compound	IC50
Cc1cc(-n2ccc(NC(=O)C3(c4ccccc4F)CC3)n2)cc(C#N)n1 [Compound 346, N-[1-(2-cyano-6-methyl-4-pyridyl)pyrazol-3-yl]-1-(2-fluorophenyl)cyclopropanecarboxamide]	> 5 µM
COc1cncc(OC)c1-n1ccc(NC(=O)C2(c3ccccc3F)CC2)n1 [Compound 347, N-[1-(3,5-dimethoxy-4-pyridyl)pyrazol-3-yl]-1-(2-fluorophenyl)cyclopropanecarboxamide]	> 5 µM
COc1ncc(-n2ccc(NC(=O)C3(c4ccccc4F)CC3)n2)cc1F [Compound 348, N-[1-(5-fluoro-6-methoxy-3-pyridyl)pyrazol-3-yl]-1-(2-fluorophenyl)cyclopropanecarboxamide]	0.033 µM
Cc1ncc(-n2ccc(NC(=O)C3(c4ccccc4F)CC3)n2)cc1F [Compound 349, N-[1-(5-fluoro-6-methyl-3-pyridyl)pyrazol-3-yl]-1-(2-fluorophenyl)cyclopropanecarboxamide]	0.44 µM
Cc1cc(-n2ccc(NC(=O)C3(c4ccccc4F)CC3)n2)c(C)cn1 [Compound 350, N-[1-(2,5-dimethyl-4-pyridyl)pyrazol-3-yl]-1-(2-fluorophenyl)cyclopropanecarboxamide]	> 5 µM
Cc1c(-n2ccc(NC(=O)C3(c4ccccc4F)CC3)n2)ccnc1F [Compound 351, N-[1-(2-fluoro-3-methyl-4-pyridyl)pyrazol-3-yl]-1-(2-fluorophenyl)cyclopropanecarboxamide]	0.42 µM
N#Cc1cc(F)cc(-n2ccc(NC(=O)C3(c4ccccc4F)CC3)n2)c1 [Compound 352, N-[1-(3-cyano-5-fluoro-phenyl)pyrazol-3-yl]-1-(2-fluorophenyl)cyclopropanecarboxamide]	> 5 µM
COc1ncncc1-n1ccc(NC(=O)C2(c3ccccc3F)CC2)n1 [Compound 353, 1-(2-fluorophenyl)-N-[1-(4-methoxypyrimidin-5-yl)pyrazol-3-yl]cyclopropanecarboxamide]	2.2 µM
CC(C)(O)c1ncc(-n2ccc(NC(=O)C3(c4ccccc4F)CC3)n2)cc1F [Compound 354, N-[1-[5-fluoro-6-(1-hydroxy-1-methyl-ethyl)-3-pyridyl]pyrazol-3-yl]-1-(2-fluorophenyl)cyclopropanecarboxamide]	> 5 µM
O=C(Nc1ccn(-c2ccc(O)c(F)c2)n1)C1(c2ccccc2F)CC1 [Compound 355, N-[1-(3-fluoro-4-hydroxy-phenyl)pyrazol-3-yl]-1-(2-fluorophenyl)cyclopropanecarboxamide]	1.7 µM
O=C(Nc1ccn(-c2cnnc(O)c2)n1)C1(c2ccccc2F)CC1 [Compound 356, 1-(2-fluorophenyl)-N-[1-(6-hydroxypyridazin-4-yl)pyrazol-3-yl]cyclopropanecarboxamide]	> 5 µM
O=C(Nc1ccn(-c2cc(F)c(O)c(F)c2)n1)C1(c2ccccc2F)CC1 [Compound 357, N-[1-(3,5-difluoro-4-hydroxy-phenyl)pyrazol-3-yl]-1-(2-fluorophenyl)cyclopropanecarboxamide]	> 5 µM
COc1cc(-n2ccc(NC(=O)C3(c4ccccc4F)CC3)n2)ncn1 [Compound 358, 1-(2-fluorophenyl)-N-(1-(6-methoxypyrimidin-4-yl)-1H-pyrazol-3-yl)cyclopropane-1-carboxamide]	> 5 µM
COc1cc(-n2ccc(NC(=O)C3(c4ccccc4F)CC3)n2)nc(C)n1 [Compound 359, 1-(2-fluorophenyl)-N-[1-(6-methoxy-2-methyl-pyrimidin-4-yl)pyrazol-3-yl]cyclopropanecarboxamide]	> 5 µM
Cc1cncnc1-n1ccc(NC(=O)C2(c3ccccc3F)CC2)n1 [Compound 360, 1-(2-fluorophenyl)-N-[1-(5-methylpyrimidin-4-yl)pyrazol-3-yl]cyclopropanecarboxamide]	0.069 µM
O=C(Nc1ccn(-c2ncncc2F)n1)C1(c2ccccc2F)CC1 [Compound 361, 1-(2-fluorophenyl)-N-[1-(5-fluoropyrimidin-4-yl)pyrazol-3-yl]cyclopropanecarboxamide]	0.15 µM
CN(C(=O)Cc1ccccc1F)c1ccn(-c2ccccc2)n1 [Compound 362, 2-(2-fluorophenyl)-N-methyl-N-(1-phenyl-1H-pyrazol-3-yl)acetamide]	> 5 µM
CN(C(=O)C1(c2ccccc2F)CC1)c1ccn(-c2ccnc(F)c2)n1 [Compound 363, 1-(2-fluorophenyl)-N-(1-(2-fluoropyridin-4-yl)-1H-pyrazol-3-yl)-N-methylcyclopropane-1-carboxamide]	> 5 µM
O=C(Nc1nn(-c2ccnc(F)c2)cc1F)C1(c2ccccc2F)CC1 [Compound 365, N-(4-fluoro-1-(2-fluoropyridin-4-yl)-1H-pyrazol-3-yl)-1-(2-fluorophenyl)cyclopropane-1-carboxamide]	0.41 µM
Cc1cn(-c2ccccc2)nc1NC(=O)C1(c2cccc(F)c2)CCC1 [Compound 372, 1-(3-fluorophenyl)-N-(4-methyl-1-phenyl-pyrazol-3-yl)cyclobutanecarboxamide]	3.7 µM
